The text below walks through data of ChEMBL document CHEMBL4665642, “Anticancer profile of newly synthesized BRAF inhibitors possess 5-(pyrimidin-4-yl)imidazo[2,1-b]thiazole scaffold” (Bioorg Med Chem, 2019).

What all share (assay type): functional
Common to all, as to details: read-out: Activity

One assay has as its system MDA-MB-468. The experiment in a line: Cytotoxicity against human MDA-MB-468 cells assessed as cell viability at 10 uM incubated for 48 hrs by sulforhodamine B assay relative to control. For orientation: Sulforhodamine B stains cellular protein and so reports cell mass.
The test system of the next assay is T47D. Nature of the assay: Cytotoxicity against human T47D cells assessed as cell viability at 10 uM incubated for 48 hrs by sulforhodamine B assay relative to control.
A further assay has as its system BT-549. The experiment in a line: Cytotoxicity against human BT-549 cells assessed as cell viability at 10 uM incubated for 48 hrs by sulforhodamine B assay relative to control.
The subject of the next assay is SK-OV-3. The experiment in a line: Cytotoxicity against human SK-OV-3 cells assessed as cell viability at 10 uM incubated for 48 hrs by sulforhodamine B assay relative to control.
For the next assay, the system named is NCI/ADR-RES. The experiment in a line: Cytotoxicity against human NCI/ADR-RES cells assessed as cell viability at 10 uM incubated for 48 hrs by sulforhodamine B assay relative to control.
The next assay deals with OVCAR-4. The experiment in a line: Cytotoxicity against human OVCAR-4 cells assessed as cell viability at 10 uM incubated for 48 hrs by sulforhodamine B assay relative to control.
The test system of another assay is UACC-62. Nature of the assay: Cytotoxicity against human UACC-62 cells assessed as cell viability at 10 uM incubated for 48 hrs by sulforhodamine B assay relative to control.
A further assay deals with MDA-MB-435. Nature of the assay: Cytotoxicity against human MDA-MB-435 cells assessed as cell viability at 10 uM incubated for 48 hrs by sulforhodamine B assay relative to control.
The subject of a further assay is Malme-3M. Nature of the assay: Cytotoxicity against human Malme-3M cells assessed as cell viability at 10 uM incubated for 48 hrs by sulforhodamine B assay relative to control.
Another assay concerns CCRF-CEM. The experiment in a line: Cytotoxicity against human CCRF-CEM cells assessed as cell viability at 10 uM incubated for 48 hrs by sulforhodamine B assay relative to control.
A further assay deals with HL-60(TB). The experiment in a line: Cytotoxicity against human HL-60(TB) cells assessed as cell viability at 10 uM incubated for 48 hrs by sulforhodamine B assay relative to control.
The subject of the next assay is K562. The experiment in a line: Cytotoxicity against human K562 cells assessed as cell viability at 10 uM incubated for 48 hrs by sulforhodamine B assay relative to control.
A further assay concerns EKVX. The experiment in a line: Cytotoxicity against human EKVX cells assessed as cell viability at 10 uM incubated for 48 hrs by sulforhodamine B assay relative to control.
In another assay the test system is NCI-H460. The experiment in a line: Cytotoxicity against human NCI-H460 cells assessed as cell viability at 10 uM incubated for 48 hrs by sulforhodamine B assay relative to control.
The next assay concerns NCI-H522. Nature of the assay: Cytotoxicity against human NCI-H522 cells assessed as cell viability at 10 uM incubated for 48 hrs by sulforhodamine B assay relative to control.
For the next assay, the system named is KM12. The experiment in a line: Cytotoxicity against human KM12 cells assessed as cell viability at 10 uM incubated for 48 hrs by sulforhodamine B assay relative to control.
For another assay, the system named is SW-620. Nature of the assay: Cytotoxicity against human SW-620 cells assessed as cell viability at 10 uM incubated for 48 hrs by sulforhodamine B assay relative to control.
In another assay the test system is SF-268. The experiment in a line: Cytotoxicity against human SF-268 cells assessed as cell viability at 10 uM incubated for 48 hrs by sulforhodamine B assay relative to control.

With `O=C(NCCNc1nccc(-c2c(-c3cccc(F)c3)nc3sccn23)n1)C1CCCCC1`, the viability at 10 µM in the assay on MDA-MB-468 was determined as 59.5%; in the assay with T47D, 30.2%; with BT-549 it was 93.9%; in the assay with SK-OV-3 it was 50.1%; with NCI/ADR-RES it was 66.9%; with OVCAR-4, 71.8%. Further, the viability at 10 µM with UACC-62 came out at 58.4%; in the assay with MDA-MB-435, 65.5%; in the assay with Malme-3M, 130%; with CCRF-CEM it was 70%; with HL-60(TB), 122%; in the assay on K562, 74.2%. In addition, the viability at 10 µM is 80.4% with EKVX; 91.6% with NCI-H460; 79.3% in the assay on NCI-H522; 81.6% with KM12; 114% with SW-620; 77.3% with SF-268.

Take `O=S(=O)(NCCCNc1nccc(-c2c(-c3cccc(F)c3)nc3sccn23)n1)c1cccc2ccccc12`: the viability at 10 µM with MDA-MB-468 was 59.3%; in the assay on T47D it was 18.4%; in the assay on BT-549, 65%; in the assay with SK-OV-3 it was 65.8%; in the assay on NCI/ADR-RES, 47.1%; with OVCAR-4, 40.1%. For the same molecule, the viability at 10 µM in the assay with UACC-62 was 24.3%; in the assay on MDA-MB-435, 22.6%; in the assay on Malme-3M, 78.7%; in the assay with CCRF-CEM, 38.5%; with HL-60(TB), 53.9%; with K562, 15.2%. The viability at 10 µM with EKVX is 56.1%; in the assay on NCI-H460, 19.9%; in the assay with NCI-H522, 56.3%; in the assay on KM12 it was 26%; in the assay on SW-620, 42.1%; in the assay with SF-268, 44.5%.

Regarding `O=C(NCCCNc1nccc(-c2c(-c3cccc(F)c3)nc3sccn23)n1)c1ccc(C(F)(F)F)cc1`, the viability at 10 µM with MDA-MB-468 stood at 76.6%; in the assay on T47D, 62.6%; in the assay with BT-549 it was 83.4%; in the assay on SK-OV-3, 69%; in the assay with NCI/ADR-RES, 74.7%; with OVCAR-4 it was 74.7%. Moreover, the viability at 10 µM amounted to 69.6% in the assay with UACC-62; 68.7% in the assay on MDA-MB-435; 121% in the assay on Malme-3M; 89.1% in the assay on CCRF-CEM; 115% in the assay with HL-60(TB); 66.7% with K562. The viability at 10 µM in the assay on EKVX stood at 72.2%; in the assay on NCI-H460, 92.1%; with NCI-H522, 90.3%; in the assay with KM12 it was 85.4%; with SW-620, 111%; in the assay with SF-268, 67.8%.

Regarding `O=C(NCCCNc1nccc(-c2c(-c3cccc(F)c3)nc3sccn23)n1)C1CCCCC1`, the viability at 10 µM in the assay on MDA-MB-468 is 74.3%; in the assay on T47D it was 37.8%; in the assay on BT-549, 78.6%; in the assay with SK-OV-3, 87.7%; in the assay on NCI/ADR-RES, 72.6%; in the assay on OVCAR-4, 85.9%. The viability at 10 µM with UACC-62 was 36.4%; in the assay with MDA-MB-435, 50.5%; with Malme-3M, 74.7%; with CCRF-CEM, 73.2%; in the assay with HL-60(TB), 111%; in the assay on K562, 65.4%. For the same molecule, the viability at 10 µM amounted to 80.8% in the assay with EKVX; 60% in the assay with NCI-H460; 77.6% with NCI-H522; 84.5% with KM12; 82.1% in the assay with SW-620; 80.2% in the assay on SF-268.
